# Assay results reported in patent US20130243847A1, “ACTIVATED CREATININE AND PRECURSORS THEREOF AS ANTIBACTERIAL AGENTS, COMPOSITIONS AND PRODUCTS CONTAINING SUCH AGENTS AND USE THEREOF” (BOARD OF REGENTS OF THE UNIVERSITY OF NEBRASKA, priority 2010, published 2013).
# “Also recorded” adds a separate entry of the source.
# Experiments:
# Assay type in all cases: cell-based
# [1] = tested on: Rhodotorula sp.; assay: Selective growth on LBD, mixture of S. aureus and Rhodotorula sp. (Example 12, FIG. 11B); conditions: 200-400 mM CEE in LBD, 37° C., 36 hours
# Description: (§1) Colonies of S. aureus and Rhodotorula sp. grown on LB agar supplemented with 1% dextrose (LBD) were suspended in PBS to 0.30 A580 nm. An equal volume of the two organisms was combined and the mixture streaked onto wells containing only LBD (None) or LBD supplemented with a precursor of antibacterially-activated CRN, CEE, and incubated at 37° C. for 36 hours.
# [2] = tested on: S. aureus; assay: as above; conditions: 37° C., 36 hours
# Description: as §1
# [3] = tested on: S. aureus; assay: Disc diffusion assay, different carrier media (Example 2); conditions: 28% by weight agent, approx. 50 μL
# Description: For purposes of the experiments described below, test compositions were prepared by admixing antibacterially-activated creatinine (CRN) or a precursor of antibacterially-activated CRN, i.e., creatine ethyl ester (CEE), as required for the experiment at hand, with a weighed amount of a suitable carrier medium to give a final concentration of 28% by weight of the antibacterial agent, based on the total weight of the composition.
# Antibacterial compositions were prepared following this procedure using a number of different aqueous and non-aqueous (anhydrous) carrier media, and evaluated for antibacterial activity in a standard disc diffusion assay. Thus, approximately 50 μL of each selected carrier containing 28% by weight of either a precursor of antibacterially-activated CRN, CEE, or antibacterially-activated CRN was added to a 6 mm disc and inverted onto a brain heart infusion agar plate that was previously spread with S. aureus at 10^5 organisms per mL. Plates were incubated at 37° C. overnight and the clear zones showing inhibition of bacterial growth were measured.
# [4] = tested on: S. aureus UAMS-1; assay: Bactericidal test in overnight culture (Example 5, FIG. 4); conditions: 200 mM
# Description: S. aureus UAMS-1 was started from a static overnight, grown for 3 hours, then 0.2 mL was added to 3 different 50 mL cultures for control, CRN and CEE. These were shaken 30 min. at 37° C., an aliquot was removed prior to the addition of a precursor of antibacterially-activated CRN, CEE, or antibacterially-activated CRN, and the starting titer was determined. Powdered CEE or crystal CRN was added directly to the 50 mL cultures to a final concentration of 200 mM. The cultures were shaken overnight and the absorbance (A) and colony forming units (cfu) were determined.
# [5] = tested on: S. aureus; assay: Disc diffusion assay of creatine esters (Example 6); conditions: approx. 50 μL anhydrous polyethylene glycol carrier with 28% by weight agent
# Description: Four (4) different creatine esters were prepared according to the method of U.S. Pat. No. 6,897,334 to Vennerstrom. The esters thus prepared were activated in the manner described herein to impart antibacterial activity thereto. Four (4) test formulations were prepared, each including approximately 50 μL of an anhydrous polyethylene glycol carrier containing 28% by weight of a different creatine ester. Each formulation was added to a 6 mm disc and inverted onto a brain heart infusion agar plate that was previously spread with S. aureus at 10^5 organisms per mL. Plates were incubated at 37° C. overnight and the clear zones showing inhibition of bacterial growth were measured.
# [6] = tested on: Micrococcus luteus; assay: Disc diffusion assay, odor causing microorganisms (Example 11); conditions: 25 mg anhydrous formulation (28% by weight) on filter disc
# Description: (§2) Twenty-five milligrams of an anhydrous formulation of either antibacterially-activated CRN or a precursor of antibacterially-activated CRN, CEE, was prepared as described in Example 2, applied to a filter disc and tested for inhibition of bacterial growth of several odor causing microorganisms in a standard disc diffusion assay using Eridex™ (Cargill Inc. Cedar Rapids, Iowa) or creatine monohydrate containing no antibacterial agent as controls. […] The zones of inhibition for CRN or lack thereof for control test samples for B. linens and M. luteus are illustrated in FIGS. 10A and 10B respectively.
# [7] = tested on: Bacillus subtilis; assay: as above; conditions: 25 mg anhydrous formulation (28% by weight) on filter disc
# Description: as §2
# [8] = tested on: Brevibacterium linens; assay: as above; conditions: 25 mg anhydrous formulation (28% by weight) on filter disc
# Description: as §2
# [9] = tested on: Staphylococcus epidermidis; assay: as above; conditions: 25 mg anhydrous formulation (28% by weight) on filter disc
# Description: as §2
# [10] = tested on: Escherichia coli beta lactamase producer (ESBL); conditions: E. coli ESBL; 50 mg anhydrous topical cream with 28% by weight agent; gentamicin 10 μg disc
# Description: (§3) This testing involved the use of 50 mg of an anhydrous topical cream containing the antibacterial agent of the invention in an amount of 28% by weight and 10 μg of gentamicin, impregnated into a standard commercially available disc (Remel, Lenoxa Kans.).
# [11] = tested on: Acinetobacter baumannii high level resistance (HLR); assay: Disc diffusion assay, CEE vs gentamicin; conditions: A. baumannii HLR; 50 mg anhydrous topical cream with 28% by weight agent; gentamicin 10 μg disc
# Description: as §3
# [12] = tested on: Pseudomonas aeruginosa laboratory strain 27853; assay: Disc diffusion assay, CEE vs gentamicin; conditions: P. aeruginosa laboratory strain 27853; 50 mg anhydrous topical cream with 28% by weight agent; gentamicin 10 μg disc
# Description: as §3
smiles,measurement,setting,value
"CCOC(=O)CN(C)C(=N)N [CEE, creatine ethyl ester]",growth of Rhodotorula,[1],did not retard growth
same,growth of Staphylococcus,[2]; 100 mM CEE in LBD,retarded
same,growth of Staphylococcus,[2]; 200 mM CEE and greater in LBD,completely inhibited
same,Zone of Inhibition,[3]; carrier hydrogel,20 mm
same,Zone of Inhibition,[3]; carrier mineral oil,21 mm
same,Zone of Inhibition,[3]; carrier pharmaceutical grade Lipoil (lecithin and isopropyl palmitate),12 mm
same,Zone of Inhibition,[3]; carrier pharmaceutical topical formulation (proprietary blend),26 mm
same,Zone of Inhibition,[3]; carrier polyethylene glycol 200,18 mm
same,Zone of Inhibition,[3]; carrier polyethylene glycol 400,14 mm
same,Zone of Inhibition,[3]; carrier red palm oil,15 mm
same,Zone of Inhibition,[3]; carrier water/25% glycerol,15 mm
same,Zone of Inhibition,[3]; carrier water/50% glycerol,15 mm
same,Zone of Inhibition,[3]; carrier water,9 mm
same,Zone of Inhibition,[3]; carrier white palm oil/corn oil (50% ea),17 mm
same,Zone of Inhibition,[3]; carrier white palm oil,12 mm
same,colonies from 1 mL of treated culture plated on solid media,"[4]; overnight culture, 48 hours incubation of plates, control 3×10^9 per mL",no colonies
same,bactericidal action for S. aureus,[4]; starting at about 1×10^3 organisms per mL,bacteriocidal; also recorded: bactericidal
same,Zone of Inhibition,[5],20 mm
same,ZONE OF INHIBITION,[6],22 mm
same,ZONE OF INHIBITION,[7],20 mm
same,ZONE OF INHIBITION,[8],40 mm
same,ZONE OF INHIBITION,[9],27 mm
same,Zone of Inhibition,[10],19 mm
same,Zone of Inhibition,[11],16 mm
same,Zone of Inhibition,[12],27 mm
